Where “and” joins values, the source holds several entries; their conditions need not be identical. Equal values may be shown once.
Molecular target: T1, M2RFL_WT (Homo sapiens, UniProt P08172)
T1 construct: made in house; host or cells: Sf9 membranes
T1 sequence (P08172 1-466): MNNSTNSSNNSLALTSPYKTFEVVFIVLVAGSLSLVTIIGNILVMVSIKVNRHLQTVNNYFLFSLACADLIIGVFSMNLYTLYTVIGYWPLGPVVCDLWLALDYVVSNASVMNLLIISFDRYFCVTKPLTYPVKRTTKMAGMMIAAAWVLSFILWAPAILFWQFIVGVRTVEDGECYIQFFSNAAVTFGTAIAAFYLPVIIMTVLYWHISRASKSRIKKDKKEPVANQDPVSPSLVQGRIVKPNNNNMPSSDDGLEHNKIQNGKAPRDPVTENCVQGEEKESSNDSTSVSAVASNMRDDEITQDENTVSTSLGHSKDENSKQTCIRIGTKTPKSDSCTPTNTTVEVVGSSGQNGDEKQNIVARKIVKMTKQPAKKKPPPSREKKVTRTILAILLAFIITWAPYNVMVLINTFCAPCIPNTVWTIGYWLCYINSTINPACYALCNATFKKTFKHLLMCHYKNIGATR
Assay: [3H]-NMS competition binding (ACh competition, GoA titration), wild type full length M2R
Set-up: unit not given here
Description: Purified M2R receptor was reconstituted into high-density lipoprotein (HDL) particles constituting apolipoprotein A1(APOA1) and mixture of POPG: POPC lipids with 3:2 (mol:mol)ratio as previously described. […] Membranes or HDL particles were separated from excess [^3H]-NMS by Whatman GF/B filters using a Brandel 48-well harvester. The bound radioligand were read on a liquid scintillation counter (MicroBeta Jet, PerkinElmer). Data were analyzed by GraphPad Prism 9.2.0. […]
Data are given as mean
± SEM from 3 independent experiments.
M2RFL△9M_K383M and M2RFL_WT.
SEM from 3 independent experiments. […]

Structure (SMILES): CC(=O)OCC[N+](C)(C)C [ACh, acetylcholine]
- ACh competition curve data, Supplementary Fig. 4c (log[M] (ACh) -3): 7.417 and 5.223 and 6.047
- ACh competition curve data, Supplementary Fig. 4c (log[M] (ACh) -4): 27.7888 and 31.3709 and 30.2311
- ACh competition curve data, Supplementary Fig. 4c (log[M] (ACh) -5): 61.0434 and 71.3013 and 69.7784
- ACh competition curve data, Supplementary Fig. 4c (log[M] (ACh) -6): 79.8736 and 96.1082 and 98.1674
- ACh competition curve data, Supplementary Fig. 4c (log[M] (ACh) -7): 94.365 and 99.8819 and 105.753
- ACh competition curve data, Supplementary Fig. 4c (log[M] (ACh) -8): 97.3725 and 89.5377 and 100.935
